Structures can show the parent of a compound that is named as a salt.
Tests used:
[1] = mouse, in vivo
From the text: In this example the kinetic properties of loaded micelles with PTX are studied in vivo using the fluorophore labels Cy7 and Cy5.5. Cy7 was covalently linked to the polymer chain and reports about the fate of the injected micelles; Cy5.5 was physically loaded in the core of the micelles and used as a modal drug.
CD-1 nude female mice (n=5) were fed with chlorophyll-free food pellets and water ad libitum, and caged in ventilated cages and clinically controlled rooms and atmosphere.

[2] = free drug; cited from earlier work

Molecule	half-life of the Cy5.5 label relative to the micelles [1]	Log P [2]
Cy5.5	shorter half-life	–
CC(=O)O[C@H]1C(=O)[C@@]2(C)[C@H]([C@H](OC(=O)c3ccccc3)[C@]3(O)C[C@H](OC(=O)[C@H](O)[C@@H](NC(=O)c4ccccc4)c4ccccc4)C(C)=C1C3(C)C)[C@]1(OC(C)=O)CO[C@@H]1C[C@@H]2O [Paclitaxel]	–	4.7
COc1cccc2c1C(=O)c1c(O)c3c(c(O)c1C2=O)C[C@@](O)(C(=O)CO)C[C@@H]3O[C@H]1C[C@H](N)[C@H](O)[C@H](C)O1 [DOX•HCl, doxorubicin hydrochloride]	–	2.82
C[C@H](NC(=O)Cc1cc(F)cc(F)c1)C(=O)N[C@H](C(=O)OC(C)(C)C)c1ccccc1 [DAPT]	–	3.54
COc1nc2ccc(Br)cc2cc1[C@@H](c1ccccc1)[C@@](O)(CCN(C)C)c1cccc2ccccc12 [Bedaquiline]	–	7.59

— US11007148B2, “Amphiphilic block copolymers for delivery of active agents” (priority 2014, dated 2021)
